Experimental data as given in patent US20150313241A1, “Pesticidal Mixtures” (BASF Corporation, priority 2012, published 2015).

Test system: wheat
Assay: Improvement of plant height in wheat (greenhouse pot trial, Use Example H-2)
Format: in vivo
Conditions: wheat cv. J B Asano, 14 days at 20° C., % compared to untreated control (100 = 13.9 cm), pyraclostrobin 5 g ai/100 kg seeds as seed treatment, B. simplex broth 10 ml per seed as drench
Experimental: Pyraclostrobin was applied as commercial seed treatment formulation STAMINA (200 g/L a.i., BASF SE, Ludwigshafen, Germany).
In pot trials in Limburgerhof greenhouses, Bacillus simplex ABU 288 was tested in wheat and maize as solo products and in combination with pyraclostrobin to show effects on plant height. The application of the pyraclostrobin was done as seed treatment and the seeds were treated in the BASF Seed Solutions Technology Center (SSTC) Limburgerhof using a batch lab treater. The respective amounts of seeds was placed in the bowl of the treater and the slurry was dosed on the spinning disk.
The bacterials were grown in shake flasks and used as fermentation broth with a CFU of at least 1×10^12 per ml. This broth was added as a drench solution directly adjacent to the seeds with 10 ml for each seed kernel which makes 50 ml per pot.
The trial was sown in 8 cm pots and a mix of peat substrate and sand (ratio 1:4) was used as a substrate. […]
For the assessment, the plant height from all plants was measured in cm. […]
The expected relative plant height of active compound combinations were determined using Colby's formula (Colby, S. R. “Calculating synergistic and antagonistic responses of herbicide combinations”, Weeds 15, pp. 20-22, 1967) and compared with the observed efficacies. […]

With pyraclostrobin as the substance, how does the “Observed relative plant height” value read?
Its value is 99.4%.
